Measured values as given in patent US20070105810A1, “THERAPEUTICS” (priority 2003, published 2007).
Where “and” joins values, the source holds several entries; their conditions need not be identical. Identical values can stand only once. Entries after “also recorded” stand apart in the source; their conditions may differ. Like-named read-outs stand apart in the source and are kept apart here.

Key:
[1] = test system: myelin-basic protein (MBP) specific, CD4-positive rat T cells; experiment: In vitro proliferation assay (rat encephalitogenic T cells); format: cell-based; settings: for IC50: Rattus norvegicus, CD4 positive, 3H-thymidine incorporation; for proliferation: T-lymphocytes, summary statement
Procedure: A more downstream event of T cell activation was analyzed in myelin-basic protein (MBP) specific, CD4-positive rat T cells. These cells can be driven into proliferation by MBP presented by irradiated thymocytes or by the mitogen concanavalin A (ConA).
Resting MBP-GFP T cells were plated in 96-wells (5×10^4 well) and stimulated by the addition of thymocytes (1.5×10^6/well) and MBP ([…]) or ConA (1.25 μg/ml), respectively.
After 2 days 3H-thymidine (Amersham Biosciences) was added to the activated cells (final concentration 4 μCi/ml); after 16 h of incubation 3H-thymidine incorporation was measured (Matrix 9600-Direct Beta Counter Packad).
(§1) Cells were stimulated in presence of MBP-pulsed irradiated APCs and increasing concentrations of BZ194. After 48 h cells were collected for cytofluorometric cell count A and RNA extraction was performed for quantitative PCR analysis (IL2) B. Effect of BZ194 on pre-activated T cell blasts C. Amplification of MBP-specific T cells which had been incubated before in the presence of DMSO or 0.5 mM or 1 mM BZ194 D.
TMBP-GFP cells were co-cultured for 48 h in 96well plates (in DMEM 1% rat serum) with APCs in presence of specific antigen ([…]) or without. Amplification of TMBP-GFP cells was measured by cytofluorometry as described (Kawakami et al. 2005, J.I.). Their numbers were determined in relation to a known absolute number of added phycoerythrin-labeled plastic beads (Becton-Dickinson). The amplification rate was calculated in relation to the GFP+T cell numbers at day 0. Alternatively, [^3H]dT (2 Ci/mmol; Amersham-Buchler) incorporation was used to evaluate proliferation. The radioactive label present in the different cultures was determined as described (Flügel et al., 2001, Immunity)

[2] = test system: myelin-basic protein (MBP) specific, CD4-positive rat T cell blasts; experiment: In vitro toxicity assay on T cell blasts; format: cell-based
Procedure: Resting MBP-GFP Tcells were plated in 96-wells (5×10^4/well). Substances to test were added at different concentration to the cells and incubated for 1 h.
Cells stimulated by the addition of thymocytes (1.5×10^6/well) and MBP.
Absolute numbers of MBP-GFP T cells were determined by quantitative cytofluorometrical analysis after 24 and 48 hours (FACS-Calibur BektonDickinson).
Activated MBP-GFP Tcells were also incubated with different concentration of substances to test and absolute numbers of MBP-GFP T cells were determined by quantitative cytofluorometrical analysis after 24 and 48 hours (FACS-Calibur BektonDickinson).
as §1

[3] = test system: encephalitogenic (MBP-specific GFP) T cells and inflammatory cells in CNS and spleen; experiment: Cytofluorometric cell counts in organs of EAE animals; format: in vivo, rat
Procedure: Animals (6 per group, body weight approx. 150 g) were injected i.p. twice per day with either PBS (vehicle control), nicotinic acid (50 μmol/100 g body weight), or BZ 52 (50 μmol/100 g body weight). […] Data are corrected for organ mass and presented as mean±SD from one representative experiment.
Cytofluorometric cell counts of MBP-specific GFP T cells in spleen A and CNS B of BZ194 (500 μmol) and DMSO-treated animals at d 3 after T cell transfer.
Cytofluorometric counts of T cells (CD4/8, abTCR), monocytes/macrophages (CD11b), dendritic cells (CD11c), B cells (OX33/CD45RA) and LFA-1+ (CD11a) and MHC class II+ (OX-6) cells in EAE lesions 4 days after T cell transfer after BZ194 (5 d, 500 μmol, blue bars) or vehicle (DMSO, magenta bars).
Single cell suspensions from organs were prepared as described previously (Flügel et al. 2001, Immunity). TGFP cells were sorted immediately after cell preparation in PBS containing 2% glucose at 4° C. using FACS Vantage (Becton Dickinson) or MoFlo sorter (Cytomation Bioinstruments, Freiburg, Germany). Cytofluorometric analysis was performed with FACS-Calibur operated by Cell Quest software (Becton Dickinson). The following monoclonal antibodies were used for surface membrane analysis: W3/25 (anti-CD4), OX33 (CD45RA, B cells, both from Serotec, Düsseldorf, Germany), R73 (abTCR), OX-6 (rat MHC class II), OX-40 antigen (CD134), OX-39 (CD25, IL-2Ra chain), CD8a, CD8b, CD11a (LFA-1a), CD11b (integrin aM chain), CD11b/c (OX42), CD11c (integrin aX chain) (all Becton Dickinson, Heidelberg, Germany). Allophycocyanin-labeled anti-mouse antibody (Invitrogen, Karlsruhe, Germany) was used as secondary antibody.

[4] = test system: transfer experimental autoimmune encephalomyelitis (EAE) in Lewis rats; experiment: Transfer experimental autoimmune encephalomyelitis (EAE); format: in vivo, Lewis rat
Description: Transfer of MBP-specific CD4-positive T cells was used at day 0 to induce experimental autoimmune encephalomyelitis (EAE) in Lewis rats. Animals injected with PBS (vehicle) or nicotinic acid (control compound with structural similarities to BZ52) developed severe paralysis of tail and rear legs due to the inflammation. Clinical symptoms started day 3.5 and reached their maxima day 4 to 6 (or 6.5). Between day 3.5 and day 6, no difference between PBS and nicotinic acid was observed, whereas a beneficial effect of BZ52 was visible (FIG. 14).
Animals (6 per group, body weight approx. 150 g) were injected i.p. twice per day with either PBS (vehicle control), nicotinic acid (50 μmol/100 g body weight), or BZ 52 (50 μmol/100 g body weight). Clinical scores indicate the degree of paralysis of tail and legs. Data are presented as mean±SD from one representative experiment (n=6).
Animals (6 per group, body weight approx. 150 g) were injected i.p. twice per day with either PBS (vehicle control), nicotinic acid (50 μmol/100 g body weight), or BZ 52 (50 μmol/100 g body weight). […] Data are presented as mean±SD from one representative experiment (n=6).
5×10^6 activated MBP specific-GFP Tcells were transferred i.v. into recipient Lewis rats. Clinical EAE was graded in five scores: 0.5, loss of tail tonus; 1, tail paralysis; 2, gait disturbance; 3, hind limb paralysis; 4, tetraparesis; 5, death.
Animals' weight was measured twice a day.
In order to analyze the effect of BZ194 on encephalitogenic T cells during the effector phase of EAE we used retrovirally transduced MBP-specific T cells expressing the marker gene green fluorescent protein (TMBP-GFP cells).
Animals were treated for 5 d intraperitoneally with 500 μmol BZ194 or vehicle (DMSO).

[5] = 500 μmol BZ194 i.p. for 5 d, mean±SD, Experiments I-III

CCCCN(CCCC)C(=O)C[n+]1cccc(C(=O)O)c1 [BZ52, 3-Carboxy-1-dibutylcarbamoylmethyl-pyridinium]
IC50 ([1]; light or radiation study, MBP presented by irradiated thymocytes, read-out: IC50, MBP mediated proliferation): ~500 µM
IC50 ([1]; ConA 1.25 μg/ml, read-out: IC50, ConA mediated proliferation): ~100 µM
proliferation [1]: efficiently inhibited
number of T cell blasts ([2]; BZ52 up to 500 μM, 48 h, non-proliferating cells): did not much reduce
number of encephalitogenic T cells ([3]; day 4 post transfer, 50 μmol/100 g i.p. twice per day): reduced significantly
decrease of number of CNS-infiltrating encephalitogenic T cells ([3]; day 4 post transfer, 50 μmol/100 g i.p. twice per day, one animal per group): about 50%
decrease in body weight ([4]; 50 μmol/100 g body weight i.p. twice per day): less pronounced decrease
clinical symptoms (clinical score) vs PBS ([4]; 50 μmol/100 g body weight i.p. twice per day, day 3.5 to day 6): a less rapid increase of symptoms, a decreased maximum score and a more rapid decline of clinical symptoms

CCCCCCCCNC(=O)C[n+]1cccc(C(=O)O)c1.[Br-] [BZ194, 3-Carboxy-1-Octylcarbamoylmethyl-Pyridinium]
T cell proliferation ([1]; MBP-pulsed irradiated APCs, increasing concentrations of BZ194, 48 h): anti-proliferative effect; also recorded: dose dependently suppressed
proliferation [1]: efficiently inhibited
proliferative response towards MBP challenge ([1]; after foregoing incubation with 0.5 mM or 1 mM BZ194): did not block
viability and reactivity of TMBP-GFP cells ([1]; cells isolated ex vivo from BZ194-treated animals, challenge with MBP (not shown)): remained viable and fully reactive
amplification of pre-activated MBP-specific T cells ([2]; in the presence of BZ194): not influenced
recruitment of T cells, B cells, macrophages and dendritic cells into the CNS ([3]; 4 days after T cell transfer, BZ194 5 d, 500 μmol): clearly diminished
infiltration of MBP-specific T cells into the CNS ([3]; spinal cord, three days after T cell transfer, BZ194 500 μmol): reduced; also recorded: seemed to interfere
distribution of TMBP-GFP cells in spleen ([3]; three days after T cell transfer, BZ194 500 μmol): accumulated in the spleen
Max. body weight loss (%) [4, 5]: 8 ± 1.6% and 10 ± 4.4% and 9 ± 4.3%
Max. clinical score [4, 5]: 1.6 ± 0.5 and 1.4 ± 0.8
clinical EAE (clinical score) ([4]; intraperitoneal BZ194, EAE by i.v. transfer of 5×10^6 TMBP-GFP cells): suppressed; also recorded: significantly ameliorated
